The target in this assay is SRC (Homo sapiens, UniProt P12931). Description: SRC Biochemical Assay Protocol (microfluidic mobility shift assay, FLPeptide4 substrate). On the procedure:
SRC Biochemical Assay Protocol
Src biochemical kinase activity was measured using a surrogate fluorescent peptide substrate [FLPeptide4; 5-FAM-EGIYGVLFKKK-CONH2 (PerkinElmer Cat. No. 760348)] with a microfluidic mobility shift assay. Reactions were performed in 384-well flat bottom polystyrene microplates (Corning Cat. No. 3570) at a final volume of 20 μL in 50 mM HEPES pH 7.4, 1 mM EGTA, 10 mM MgCl2, 0.01% Brij-35, 2 mM DTT, 0.05% BSA, 1% DMSO. Inhibition experiments were performed with compounds of the invention varying from 0.0017-100 μM with 0.26 nM SRC, 1.5 μM FLPeptide4, and 50 μM ATP. Specifically, 15 μl 1.3× mixtures of SRC+FLPeptide4+compounds were preincubated for 30 minutes at room temperature followed by addition of 5 μL 4×ATP. Reactions were carried out for 90 minutes then quenched with 40 μl 500 mM EDTA. Phosphorylated peptide product was measured with a mobility shift assay using a LabChip® EZ Reader system (PerkinElmer Cat. No. 122919). Inhibition ratios were calculated relative to neutral controls and IC50 values were obtained from dose response data fitted to a 4-parameter logistic model.
Sequence of SRC (P12931 whole entry, species assumed): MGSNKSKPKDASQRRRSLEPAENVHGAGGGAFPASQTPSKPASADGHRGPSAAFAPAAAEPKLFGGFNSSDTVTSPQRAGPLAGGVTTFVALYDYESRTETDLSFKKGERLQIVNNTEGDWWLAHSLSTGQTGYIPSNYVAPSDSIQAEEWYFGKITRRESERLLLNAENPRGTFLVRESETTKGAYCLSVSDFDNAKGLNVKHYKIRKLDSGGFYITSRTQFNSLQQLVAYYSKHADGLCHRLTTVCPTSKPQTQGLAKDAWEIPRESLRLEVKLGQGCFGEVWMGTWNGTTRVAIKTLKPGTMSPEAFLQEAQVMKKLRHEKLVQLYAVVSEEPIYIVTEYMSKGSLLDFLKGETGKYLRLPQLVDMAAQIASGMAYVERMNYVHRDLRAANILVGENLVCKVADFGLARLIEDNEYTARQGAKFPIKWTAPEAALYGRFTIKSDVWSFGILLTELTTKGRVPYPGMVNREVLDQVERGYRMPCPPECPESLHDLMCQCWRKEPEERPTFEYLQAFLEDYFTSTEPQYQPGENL
With `CC(C)n1c(C#CC2CCC(NC(=O)CCl)CC2)c(-c2ccc(Oc3ccccc3)cc2)c2c(N)ncnc21` (stereo not drawn) [Example I-38], the IC50 (commonly the midpoint of a concentration-inhibition curve) lay in the range of 0.01 to 1 µM.

As for `C=CC(=O)N1CCC(N2CC(C#Cc3c(-c4ccc(Oc5cccc(C)n5)c(OC)c4)c4c(N)ncnc4n3C3CCOC3)C2)CC1` (stereo not drawn) [II-125], the IC50 is 0.01 to 1 µM.

Turning to `C=C(C)C(=O)N1CCC(C#Cc2c(-c3ccc(Oc4ccccc4)cc3)c3c(N)ncnc3n2[C@H]2CCOC2)CC1` [III-37], the IC50 was in the range of 0.01 to 1 µM. As for `C=CC(=O)N[C@H]1CC[C@@H](C#Cc2c(-c3ccc(Oc4ccccc4)cc3)c3c(N)ncnc3n2C)CC1` [III-57], the IC50 lay within 0.01 to 1 µM. Take `C=CC(=O)N1CCC(N2CC(C#Cc3c(-c4ccc(Oc5ccccc5)cc4)c4c(N)ncnc4n3C3CCOC3)C2)CC1` (stereo not drawn) [III-53]: the IC50 was no more than 0.01 µM. `C=CC(=O)N1CCC(C#Cc2c(-c3ccc(Oc4ccccc4)cc3)c3c(N)ncnc3n2[C@H](C)CO)CC1` (single isomer, unassigned) [Example I-24]: the IC50 is 0.01 to 1 µM. The same measure for `C=CC(=O)N1CC(N2CCC(C#Cc3c(-c4ccc(Nc5ccccn5)cc4)c4c(N)ncnc4n3C(C)C)CC2)C1` [Example I-46]: 0.01 to 1 µM; for `C=CC(=O)N1CCC(N2CC(C#Cc3c(-c4ccc(Oc5cccc(C)n5)cc4)c4c(N)ncnc4n3C)C2)CC1` [III-75]: 0.01 to 1 µM.

As to `CC(C)n1c(C#CC2CCC(N)CC2)c(-c2ccc(Oc3ccccc3)cc2)c2c(N)ncnc21` (stereo not drawn) [II-151, 6-((4-aminocyclohexyl)ethynyl)-7-isopropyl-5-(4-phenoxyphenyl)-7H-pyrrolo[2,3-d]pyrimidin-4-amine], the IC50 is no more than 0.01 µM. As to `CN(C)C/C=C/C(=O)N1CC2(C1)CC(O)(C#Cc1c(-c3ccc(Oc4ccccc4)cc3)c3c(N)ncnc3n1C)C2` [III-26], the IC50 lay in the range of 0.01 to 1 µM. Turning to `C=CC(=O)N1CC(N2CCC(C#Cc3c(-c4ccc(Oc5ccccn5)cc4)c4c(N)ncnc4n3C(C)C)CC2)C1` [Example I-47], the IC50 lay in the range of 0.01 to 1 µM. Consider `C=C(C)C(=O)N1CCC(N2CC(C#Cc3c(-c4ccc(Oc5ccccc5)cc4)c4c(N)ncnc4n3C)C2)CC1` [III-38], for which the IC50 was in the range of 0.01 to 1 µM. On to `C=CC(=O)N1CCC(C#Cc2c(-c3ccc(Oc4cccnc4)cc3)c3c(N)ncnc3n2C(C)C)CC1` [Example I-11], for which the concentration for half-maximal inhibition (IC50) lay in the range of 0.01 to 1 µM. For `C=CC(=O)N1CCC(N2CC(C#Cc3c(-c4ccc(Oc5ccccc5)c(C)c4)c4c(N)ncnc4n3C)C2)CC1` [III-83] the value was 0.01 to 1 µM; for `C=CS(=O)(=O)N1CC(N2CCC(C#Cc3c(-c4ccc(Oc5ccccc5)cc4)c4c(N)ncnc4n3C(C)C)CC2)C1` [Example I-53], no more than 0.01 µM. Turning to `C=CC(=O)N1CCC(N2CC(C#Cc3c(-c4ccc(Oc5ccccc5)c(C#N)c4)c4c(N)ncnc4n3C)C2)CC1` [III-74], the IC50 is greater than 10 µM. Regarding `COC(=O)C(C)n1c(C#CC2CCNCC2)c(-c2ccc(Oc3ccccc3)cc2)c2c(N)ncnc21` (stereo not drawn) [II-154, methyl 2-(4-amino-5-(4-phenoxyphenyl)-6-(piperidin-4-ylethynyl)-7H-pyrrolo[2,3-d]pyrimidin-7-yl)propanoate], the half-maximal inhibitory concentration (IC50) was 0.01 to 1 µM. Turning to `C=CC(=O)N(C)CC(=O)N1CCC(C#Cc2c(-c3ccc(Oc4ccccc4)cc3)c3c(N)ncnc3n2C)CC1` [III-43], the half-maximal inhibitory concentration (IC50) fell in the range of 0.01 to 1 µM.

For `C=CC(=O)N1CC[C@@H](N2CC(C#Cc3c(-c4ccc(Oc5ccccc5)cc4)c4c(N)ncnc4n3C)C2)[C@H](C)C1` [III-66], the IC50 was in the range of 0.01 to 1 µM. For `C=CC(=O)N1CC2C(C#Cc3c(-c4ccc(Oc5ccccc5)cc4)c4c(N)ncnc4n3C)C2C1` (stereo not drawn) [III-52], the half-maximal inhibitory concentration (IC50) lay in the range of 0.01 to 1 µM. As to `C=CC(=O)N1CCC(N2CC(O)(C#Cc3c(-c4ccc(Oc5ccccc5)cc4)c4c(N)ncnc4n3C)C2)CC1` [III-23], the IC50 was in the range of 0.01 to 1 µM. On to `C=CC(=O)N1CC(C#Cc2c(-c3ccc(Oc4ccccc4)cc3)c3c(N)ncnc3n2C(C)C)C1` [Example I-3], for which the IC50 was no more than 0.01 µM. For the compound `C=CC(=O)N1CCC(C#Cc2c(-c3ccc(Oc4ccccc4)cc3)c3c(N)ncnc3n2C(C)C(=O)O)CC1` (stereo not drawn) [Example I-34], the half-inhibitory concentration (IC50) lay within 1 to 10 µM. For `C=CC(=O)N1C[C@@H]2[C@@H](C#Cc3c(-c4ccc(Oc5cccc(C)n5)c(OC)c4)c4c(N)nccc4n3CCOC)[C@@H]2C1` [II-78] the value was 1 to 10 µM; for `C=CC(=O)N1CCC(N2CC(C#Cc3c(-c4ccc(Oc5ccccc5)cc4)c4c(N)ncnc4n3C)C2)C[C@H]1C` (stereo partly drawn) [III-46], 0.01 to 1 µM. Consider `C=CC(=O)N[C@@H](C)C(=O)N1CCC(C#Cc2c(-c3ccc(Oc4ccccc4)cc3)c3c(N)ncnc3n2C)CC1` [III-45], for which the IC50 was no more than 0.01 µM.

On to `CC(C)n1c(C#Cc2cnn(C)c2)c(-c2ccc(Oc3ccccc3)cc2)c2c(N)ncnc21` [III-7], for which the IC50 was 0.01 to 1 µM. Turning to `C=CC(=O)N1CCC(C#Cc2c(-c3ccc(Oc4ccccc4)cc3)c3c(N)ncnc3n2C(C)CO)C1` (stereo not drawn) [III-33], the IC50 is 0.01 to 1 µM. For the compound `C=CC(=O)N[C@H]1CC[C@H](C#Cc2c(-c3ccc(Oc4ccccc4)cc3)c3c(N)ncnc3n2C)CC1` [III-58], the IC50 lay in the range of 0.01 to 1 µM. Take `C=CC(=O)N1CCC(N2CC(F)(C#Cc3c(-c4ccc(Oc5cccc(C)n5)c(OC)c4)c4c(N)ncnc4n3C)C2)C[C@H]1COC` (stereo partly drawn) [III-92]: the IC50 is 0.01 to 1 µM. Consider `C=CC(=O)N1CCC(N2CC(C#Cc3c(-c4ccc(Oc5ccccc5)cc4)c4c(N)ncnc4n3C)C2)C[C@H]1CO` (stereo partly drawn) [III-64], for which the IC50 lay within 0.01 to 1 µM. Consider `CC(C)n1c(C#CC2CCN(C#N)CC2)c(-c2ccc(Oc3ccccc3)cc2)c2c(N)ncnc21` [Example I-2], for which the IC50 lay within 0.01 to 1 µM.

Take `C=CC(=O)N1C[C@@H]2[C@@H](C#Cc3c(-c4ccc(Oc5ccccc5)c5c4OCO5)c4c(N)ncnc4n3C)[C@@H]2C1` [III-88]: the IC50 is no more than 0.01 µM. As for `CC(CO)n1c(C#CC2CCN(C(=O)/C=C/CN(C)C)C2)c(-c2ccc(Oc3ccccc3)cc2)c2c(N)ncnc21` (stereo not drawn) [III-32], the IC50 fell in the range of 0.01 to 1 µM. `CC(C)n1c(C#CC2CCNC2)c(-c2ccc(Oc3ccccc3)cc2)c2c(N)ncnc21` (stereo not drawn) [II-157, 7-isopropyl-5-(4-phenoxyphenyl)-6-(pyrrolidin-3-ylethynyl)-7H-pyrrolo[2,3-d]pyrimidin-4-amine]: the half-maximal inhibitory concentration (IC50) is no more than 0.01 µM. On to `CC(C)n1c(C#CC2CCN(C(=O)/C=C/CN(C)C)C2)c(-c2ccc(Oc3ccccc3)cc2)c2c(N)ncnc21` (stereo not drawn) [III-12], for which the IC50 is no more than 0.01 µM. Turning to `CC(C)n1c(C#CC2CCOCC2)c(-c2ccc(Oc3ccccc3)cc2)c2c(N)ncnc21` [III-8], the IC50 fell in the range of 0.01 to 1 µM. As to `C=CC(=O)N1CCC(C#Cc2c(-c3ccc(Oc4ccccc4)cc3)c3c(N)ncnc3n2CCCN(C)C)C1` (stereo not drawn) [III-15], the IC50 was in the range of 0.01 to 1 µM. On to `CC(C)n1c(C#CC2CCN(C3CNC3)CC2)c(-c2ccc(Oc3ccccc3)cc2)c2c(N)ncnc21` [II-153, 6-((1-(azetidin-3-yl)piperidin-4-yl)ethynyl)-7-isopropyl-5-(4-phenoxyphenyl)-7H-pyrrolo[2,3-d]pyrimidin-4-amine], for which the IC50 is no more than 0.01 µM. Consider `C=CC(=O)N1CCC(N2CC(C#Cc3c(-c4ccc(Oc5ccccc5)cc4)c4c(N)ncnc4n3C)C2)C[C@@H]1CO` (stereo partly drawn) [III-67], for which the IC50 lay within 0.01 to 1 µM. Take `C=CC(=O)N1CCC(N2CCC(C#Cc3c(-c4ccc(Oc5ccccc5)cc4)c4c(N)ncnc4n3C)C2)CC1` (stereo not drawn) [III-73]: the 50% inhibitory concentration (IC50) lay within 0.01 to 1 µM.

`C=CC(=O)N1CCC(N2CC(C#Cc3c(-c4ccc(Oc5nnc(C)o5)c(OC)c4)c4c(N)ncnc4n3C)C2)CC1` [III-89]: the IC50 fell in the range of 0.01 to 1 µM.

For the origin of these results see patent US20250154154A1 (Relay Binney Street, 2nd Floor, priority 2020, published 2025).
